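48-hour exposure; five concentrations; linearly interpolated endpoints. TGI: concentration producing complete growth inhibition.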

Among the test systems are HL-60(TB) leukemia; IGROV1 ovarian; MALME-3M melanoma; MDA-MB-435; MOLT-4 leukemia; NCI-H23 lung; NCI/ADR-RES ovarian; OVCAR-3 ovarian; PC-3 prostate; UACC-62 melanoma.
Holding throughout (assay): NCI-60 cell line screen, 48 h

`COc1ccc(C(SC2C(O)C(CO)OC2n2ccc(N)nc2=O)(c2ccccc2)c2ccc(OC)cc2)cc1` (stereo not given): the TGI in the assay with HL-60(TB) leukemia is 69.4 µM; in the assay with IGROV1 ovarian, 67 µM; with MALME-3M melanoma it was 28.3 µM; in the assay with MDA-MB-435 it was 28.2 µM; in the assay on MOLT-4 leukemia, > 100 µM; in the assay on NCI-H23 lung it was 57.6 µM. Moreover, the TGI in the assay with NCI/ADR-RES ovarian is 60 µM; in the assay on OVCAR-3 ovarian it was 48.5 µM; with PC-3 prostate it was 41.1 µM; in the assay with UACC-62 melanoma, 33 µM.
As for `COc1ccc(NC(C)=O)cc1N1C(=O)/C(=C\c2cc(OC)c(OC)c(OC)c2)SC1c1ccccc1` (stereo not given), the TGI in the assay with HL-60(TB) leukemia was 41 µM; in the assay on IGROV1 ovarian, > 100 µM; in the assay with MALME-3M melanoma, > 100 µM; in the assay on MDA-MB-435, > 100 µM; with MOLT-4 leukemia, 65.6 µM; in the assay on NCI-H23 lung, > 100 µM. For the same compound, the TGI in the assay with NCI/ADR-RES ovarian, with OVCAR-3 ovarian, with PC-3 prostate and in the assay on UACC-62 melanoma was > 100 µM throughout.
For the compound `N#Cc1c(-c2ccc(Cl)cc2)c2c(n(C3OC(CO)C(O)C(O)C3O)c1=S)CCC2` (stereo not given), the TGI in the assay on HL-60(TB) leukemia was > 100 µM; with IGROV1 ovarian it was > 100 µM; in the assay on MALME-3M melanoma, 51.8 µM; in the assay with MDA-MB-435, 46.1 µM; in the assay with MOLT-4 leukemia, 29 µM; in the assay on NCI-H23 lung, 70.6 µM. In addition, the TGI in the assay with NCI/ADR-RES ovarian is > 100 µM; in the assay with OVCAR-3 ovarian it was 74.3 µM; in the assay with PC-3 prostate, > 100 µM; with UACC-62 melanoma, 34 µM.
Regarding `N#Cc1ccccc1-c1nc2c3c(c(N)ccc3n1)C(=O)c1ccccc1-2`, the TGI with HL-60(TB) leukemia, in the assay with IGROV1 ovarian, with MALME-3M melanoma, in the assay with MDA-MB-435, in the assay on MOLT-4 leukemia and in the assay on NCI-H23 lung was > 100 µM each time. Besides, the TGI in the assay with NCI/ADR-RES ovarian, in the assay on OVCAR-3 ovarian, in the assay on PC-3 prostate and in the assay on UACC-62 melanoma was > 100 µM each time.

The values are drawn from PubChem BioAssay (NCI).
